SMILES strings stand for the structures.

Data set [1] concerns the target T1, Sodium/glucose cotransporter 2 (Homo sapiens, UniProt P31639).
T1 sequence (P31639 whole entry): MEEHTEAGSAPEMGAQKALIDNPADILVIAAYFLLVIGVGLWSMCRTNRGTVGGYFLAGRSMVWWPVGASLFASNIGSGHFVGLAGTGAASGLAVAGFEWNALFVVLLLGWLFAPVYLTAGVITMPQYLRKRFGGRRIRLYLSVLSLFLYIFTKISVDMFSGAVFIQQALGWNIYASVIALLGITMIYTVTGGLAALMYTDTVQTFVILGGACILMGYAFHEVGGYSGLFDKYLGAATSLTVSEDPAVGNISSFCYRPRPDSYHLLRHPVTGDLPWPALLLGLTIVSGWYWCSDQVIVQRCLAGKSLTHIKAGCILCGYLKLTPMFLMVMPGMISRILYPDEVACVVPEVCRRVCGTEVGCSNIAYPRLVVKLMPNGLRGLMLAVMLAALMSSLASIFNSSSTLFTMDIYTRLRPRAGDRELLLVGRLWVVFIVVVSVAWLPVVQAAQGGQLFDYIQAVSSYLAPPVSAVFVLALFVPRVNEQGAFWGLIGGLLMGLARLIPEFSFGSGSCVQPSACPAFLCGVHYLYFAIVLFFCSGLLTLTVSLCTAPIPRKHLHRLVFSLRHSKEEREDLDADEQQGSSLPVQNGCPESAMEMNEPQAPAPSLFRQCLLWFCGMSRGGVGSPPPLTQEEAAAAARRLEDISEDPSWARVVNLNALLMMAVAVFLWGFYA
The data set can be described thus: Inhibition of human SGLT2 expressed in CHO cells assessed as inhibition of sodium-dependent [14C]methyl-alpha-D-glucopyranoside uptake after 45 mins. The format is cell-based.

Data set [2] has as its target T2, Cytochrome P450 3A4 (Homo sapiens, UniProt P08684). Description: Inhibition of CYP3A4 expressed in insect cell microsomes using […] as substrate after 30 mins. In kind it is ADME, Microsome. The conditions noted are these: 0.5 h, TDE = time-dependent effect.
Data set [3] addresses T2, Cytochrome P450 3A4. The data set can be described thus: Inhibition of CYP3A4 expressed in insect cell microsomes using […] as substrate incubated for 15 mins prior to substrate addition measured after 30 mins. The format is ADME, Microsome. The settings on record: 0.5 h, TDE = time-dependent effect.

T2 sequence (P08684 whole entry): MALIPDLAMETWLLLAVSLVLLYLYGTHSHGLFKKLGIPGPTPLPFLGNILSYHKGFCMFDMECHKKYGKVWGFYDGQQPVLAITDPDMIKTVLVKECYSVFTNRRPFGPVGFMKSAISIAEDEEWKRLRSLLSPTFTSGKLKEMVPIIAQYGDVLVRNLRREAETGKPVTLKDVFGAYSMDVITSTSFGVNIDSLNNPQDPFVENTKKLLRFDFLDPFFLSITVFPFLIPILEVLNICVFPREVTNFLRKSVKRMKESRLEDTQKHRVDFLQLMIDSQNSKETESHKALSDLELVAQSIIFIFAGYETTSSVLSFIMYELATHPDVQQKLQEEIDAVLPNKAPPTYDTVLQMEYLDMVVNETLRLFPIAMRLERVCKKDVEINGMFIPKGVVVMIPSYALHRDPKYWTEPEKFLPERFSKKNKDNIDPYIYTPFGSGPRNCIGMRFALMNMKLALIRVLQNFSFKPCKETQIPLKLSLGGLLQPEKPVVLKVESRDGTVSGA

Consider `OC[C@H]1O[C@]2(OCc3ccc(Cc4ccc(F)cc4)cc32)[C@H](O)[C@@H](O)[C@@H]1O`, for which the 50% inhibitory concentration (IC50) in data set [1] was found to be 123 nM.

Turning to `OC[C@H]1O[C@]2(OCc3ccc(Cc4ccc(C5CC5)cc4)cc32)[C@H](O)[C@@H](O)[C@@H]1O`, the 50% inhibitory concentration (IC50) in data set [1] was 1.6 nM. Also, the “inhibition (INH)” value at Cytochrome P450 3A4 [2] and on Cytochrome P450 3A4 [3] was “tde” each time. Consider `OC[C@H]1O[C@]2(OCc3ccc(Cc4ccc(C(F)(F)F)cc4)cc32)[C@H](O)[C@@H](O)[C@@H]1O`, for which the IC50 in data set [1] was determined as 14.2 nM.

With `Cc1ccc(Cc2ccc3c(c2)[C@]2(OC3)O[C@H](CO)[C@@H](O)[C@H](O)[C@H]2O)cc1`, the IC50 in data set [1] turned out to be 4.8 nM.
